The structures appear in SMILES notation.

The subject of the data set is Pseudomonas aeruginosa PAO1 MB9798 (efflux+, IMP-1). The conditions noted are these: ratio MITC95 PA 9798/MITC95 PA 9799; imipenem at 2 μg/mL. The gist of the method:
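Isogenic PAO1 pair (efflux+ MB9798, efflux− MB9799, both IMP-1) tested by microbroth MIC with fixed imipenem and/or ceftazidime, usually at CLSI breakpoint, plus fixed class A/C inhibitor against AmpC. MBL inhibitor titrated; concentration restoring susceptibility recorded and fold difference between strains taken as efflux extent.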
Consider `NS(=O)(=O)c1ccc(-c2cccc3cn[nH]c23)c(-c2nn[nH]n2)c1S(N)(=O)=O` [Example 3, 4-(1H-indazol-7-yl)-3-(2H-tetrazol-5-yl)benzene-1,2-disulfonamide], for which the Efflux ratio is given as 2.00. The result for `Nc1nc2c(-c3ccc(S(=O)(=O)NCCN4CCNC(=O)C4)c(S(N)(=O)=O)c3-c3nnn[nH]3)cccc2s1` [Example 15, 4-(2-amino-1,3-benzothiazol-4-yl)-N1-[2-(3-oxopiperazin-1-yl)ethyl]-3-(1H-tetrazol-5-yl)benzene-1,2-disulfonamide] reads 1.00; that for `Nc1nc2c(-c3ccc(S(=O)(=O)NC[C@@H](N)C(=O)O)c(S(N)(=O)=O)c3-c3nn[nH]n3)cccc2s1` [Example 154, (R)-2-amino-3-((4-(2-aminobenzo[d]thiazol-4-yl)-2-sulfamoyl-3-(2H-tetrazol-5-yl)phenyl)sulfonamido) propanoic acid], 0.50; that for `Nc1nc2c(-c3ccc(S(=O)(=O)N[C@@H]4CNC[C@H]4O)c(S(N)(=O)=O)c3-c3nnn[nH]3)cccc2[nH]1` [Example 171, 4-(2-amino-1H-benzo[d]imidazol-4-yl)-N^1-((3R,4R)-4-hydroxypyrrolidin-3-yl)-3-(1H-tetrazol-5-yl)benzene-1,2-disulfonamide], 0.50. As for `Nc1nc2c(-c3ccc(S(=O)(=O)N[C@]4(CO)CCNC4)c(S(N)(=O)=O)c3-c3nnn[nH]3)cccc2[nH]1` [Example 177, (R)-4-(2-amino-1H-benzo[d]imidazol-4-yl)-N1-(3-(hydroxymethyl)pyrrolidin-3-yl)-3-(1H-tetrazol-5-yl)benzene-1,2-disulfonamide], the Efflux ratio is on record as 0.50. The same measure for `NC[C@H](O)CNS(=O)(=O)c1ccc(-c2cccc3[nH]cnc23)c(-c2nn[nH]n2)c1S(N)(=O)=O` [Example 307, (S)-4-(1H-benzo[d]imidazol-4-yl)-N1-(3-amino-2-hydroxypropyl)-3-(2H-tetrazol-5-yl)-benzene-1,2-disulfonamide]: 1.00; for `CNc1ccc(-c2ccc(S(=O)(=O)NCCN)c(S(N)(=O)=O)c2-c2nn[nH]n2)cn1` [Example 243, N^1-(2-aminoethyl)-4-(6-(methylamino)pyridin-3-yl)-3-(2H-tetrazol-5-yl)benzene-1,2-disulfonamide]: 1.00; for `NS(=O)(=O)c1c(S(=O)(=O)N[C@@H]2CCNC2)ccc(-c2cccc3nonc23)c1-c1nn[nH]n1` [Example 238, (R)-4-(benzo[c][1,2,5]oxadiazol-4-yl)-N^1-(pyrrolidin-3-yl)-3-(2H-tetrazol-5-yl)benzene-1,2-disulfonamide]: 4.00. Turning to `CN([C@H]1CCNC1)S(=O)(=O)c1ccc(-c2cccc3sc(N)nc23)c(-c2nnn[nH]2)c1S(N)(=O)=O` [Example 65, 4-(2-amino-1,3-benzothiazol-4-yl)-N1-methyl-N1-[(3S)-pyrrolidin-3-yl]-3-(1H-tetrazol-5-yl)benzene-1,2-disulfonamide], the Efflux ratio came to 2.00. On to `CN(C)C1CN(S(=O)(=O)c2ccc(-c3cccc4sc(N)nc34)c(-c3nnn[nH]3)c2S(N)(=O)=O)C1` [Example 39, 3-(2-amino-1,3-benzothiazol-4-yl)-6-{[3-(dimethylamino)azetidin-l-yl]sulfonyl}-2-(1H-tetrazol-5-yl)benzenesulfonamide], for which the Efflux ratio came out at 16.00.

Take `NS(=O)(=O)c1c(S(=O)(=O)N[C@@H]2CCNC2)ccc(-c2ccc3c(c2)C(=O)NC3)c1-c1nnn[nH]1` [Example 138, (R)-4-(3-oxoisoindolin-5-yl)-N1-(pyrrolidin-3-yl)-3-(1H-tetrazol-5-yl)benzene-1,2-disulfonamide]: the Efflux ratio is given as 1.00. The result for `NS(=O)(=O)c1c(S(=O)(=O)N[C@@H]2CCNC2)ccc(-c2cccc3c2OC(F)(F)O3)c1-c1nnn[nH]1` [Example 131, (R)-4-(2,2-difluorobenzo[d][1,3]dioxol-4-yl)-N1-(pyrrolidin-3-yl)-3-(1H-tetrazol-5-yl)benzene-1,2-disulfonamide] reads 16.00; that for `Nc1nc2c(-c3ccc(S(=O)(=O)NC[C@H]4CCNC4)c(S(N)(=O)=O)c3-c3nnn[nH]3)cccc2s1` [Example 73, 4-(2-amino-1,3-benzothiazol-4-yl)-N^1-[(3S)-pyrrolidin-3-ylmethyl]-3-(1H-tetrazol-5-yl)benzene-1,2-disulfonamide], 0.50. Turning to `NC(=O)[C@@H](N)CNS(=O)(=O)c1ccc(-c2cccc3[nH]c(N)nc23)c(-c2nn[nH]n2)c1S(N)(=O)=O` [Example 189, (2S)-2-amino-3-(4-(2-amino-1H-benzo[d]imidazol-4-yl)-2-sulfamoyl-3-(2H-tetrazol-5-yl)phenylsulfonamido)propanamide], the Efflux ratio is given as 0.50.

On to `Nc1nc2c(-c3ccc(S(=O)(=O)N[C@@H]4CNC[C@@H]4O)c(S(N)(=O)=O)c3-c3nnn[nH]3)cccc2[nH]1` [Example 170, 4-(2-amino-1H-benzo[d]imidazol-4-yl)-N^1-((3R,4S)-4-hydroxypyrrolidin-3-yl)-3-(1H-tetrazol-5-yl)benzene-1,2-disulfonamide], for which the Efflux ratio is 1.00. Take `Nc1nc2c(-c3ccc(S(=O)(=O)NCC4CNCCO4)c(S(N)(=O)=O)c3-c3nnn[nH]3)cccc2s1.O=C(O)C(F)(F)F` (centres unmarked) [Example 112, 2-((4-(2-aminobenzo[d]thiazol-4-yl)-2-sulfamoyl-3-(1H-tetrazol-5-yl)phenylsulfonamido)methyl)morpholin-4-ium 2,2,2-trifluoroacetate]: the Efflux ratio is recorded as 1.00. The result for `Nc1nc2c(-c3ccc(S(=O)(=O)N4CC5(CCNC5)C4)c(S(N)(=O)=O)c3-c3nnn[nH]3)cccc2s1` [Example 48, 3-(2-amino-1,3-benzothiazol-4-yl)-6-(2,6-diazaspiro[3.4]oct-2-ylsulfonyl)-2-(1H-tetrazol-5-yl)benzenesulfonamide] reads 1.00; that for `Nc1ncccc1-c1ccc(S(=O)(=O)N[C@H]2C[C@@H]2N)c(S(N)(=O)=O)c1-c1nn[nH]n1` [Example 216, N1-((1S)-2-aminocyclopropyl)-4-(2-aminopyridin-3-yl)-3-(2H-tetrazol-5-yl)benzene-1,2-disulfonamide], 4.00. Turning to `C[C@@H](N)CNS(=O)(=O)c1ccc(-c2cccc3[nH]c(N)nc23)c(-c2nn[nH]n2)c1S(N)(=O)=O` [Example 185, 4-(2-amino-1H-benzo[d]imidazol-4-yl)-N1-((R)-2-aminopropyl)-3-(2H-tetrazol-5-yl)benzene-1,2-disulfonamide], the Efflux ratio turned out to be 0.65. The same measure for `NS(=O)(=O)c1ccc(-c2cccc3[nH]c(C(=O)O)nc23)c(-c2nn[nH]n2)c1S(N)(=O)=O` [Example 8, 4-(3,4-disulfamoyl-2-(2H-tetrazol-5-yl)phenyl)-1H-benzo[d]imidazole-2-carboxylic acid]: 1.00; for `Nc1ccc(-c2ccc(S(=O)(=O)NC[C@H]3CNCCN3)c(S(N)(=O)=O)c2-c2nn[nH]n2)cn1` [Example 315, (R)-4-(6-aminopyridin-3-yl)-N1-(piperazin-2-ylmethyl)-3-(1H-tetrazol-5-yl)benzene-1,2-disulfonamide]: 1.00.

Take `C[C@H]1NC(=O)O[C@H]1c1ccc(-c2ccc(S(=O)(=O)N[C@@H]3CCNC3)c(S(N)(=O)=O)c2-c2nnn[nH]2)cc1` [Example 141, 4'-((4R,5S)-4-methyl-2-oxooxazolidin-5-yl)-N4-((R)-pyrrolidin-3-yl)-2-(1H-tetrazol-5-yl)-[1,1'-biphenyl]-3,4-disulfonamide]: the Efflux ratio is 1.00. With `C[C@H](CN)NS(=O)(=O)c1ccc(-c2cccnc2N)c(-c2nn[nH]n2)c1S(N)(=O)=O` [Example 212, (R)-N1-(1-aminopropan-2-yl)-4-(2-aminopyridin-3-yl)-3-(2H-tetrazol-5-yl)benzene-1,2-disulfonamide], the Efflux ratio stood at 1.00.

Take `NCCNS(=O)(=O)c1ccc(-c2cccc3oc(N)nc23)c(-c2nn[nH]n2)c1S(N)(=O)=O` [Example 11, 4-(2-aminobenzo[d]oxazol-4-yl)-N^1-(2-aminoethyl)-3-(2H-tetrazol-5-yl)benzene-1,2-disulfonamide]: the Efflux ratio amounted to 1.00. As for `NS(=O)(=O)c1c(S(=O)(=O)N[C@@H]2CCNC2)ccc(-c2cccnc2N2CCNCC2)c1-c1nn[nH]n1` [Example 220, (R)-4-(2-(piperazin-1-yl)pyridin-3-yl)-N1-(pyrrolidin-3-yl)-3-(2H-tetrazol-5-yl)benzene-1,2-disulfonamide], the Efflux ratio was 4.00. For the compound `NC[C@H](O)CNS(=O)(=O)c1ccc(-c2ccc(N)nc2)c(-c2nn[nH]n2)c1S(N)(=O)=O` [Example 309, (S)-N1-(3-amino-2-hydroxypropyl)-4-(6-aminopyridin-3-yl)-3-(2H-tetrazol-5-yl)benzene-1,2-disulfonamide], the Efflux ratio is given as 1.00. For the compound `CN1CCN(S(=O)(=O)c2ccc(-c3cccc4sc(N)nc34)c(-c3nnn[nH]3)c2S(N)(=O)=O)CC1` [Example 27, 3-(2-amino-1,3-benzothiazol-4-yl)-6-[(4-methylpiperazin-1-yl)sulfonyl]-2-(1H-tetrazol-5-yl)benzenesulfonamide], the Efflux ratio was 2.00. `Nc1nc2c(-c3ccc(S(=O)(=O)N4CCC[C@@H](N)C4)c(S(N)(=O)=O)c3-c3nnn[nH]3)cccc2s1` [Example 68, 3-(2-amino-1,3-benzothiazol-4-yl)-6-{[(3R)-3-aminopiperidin-1-yl]sulfonyl}-2-(1H-tetrazol-5-yl)benzenesulfonamide]: the Efflux ratio amounted to 2.00. Take `Nc1nc2c(-c3ccc(S(=O)(=O)N[C@H]4CNC[C@@H]4F)c(S(N)(=O)=O)c3-c3nnn[nH]3)cccc2s1` [Example 59, 4-(2-amino-1,3-benzothiazol-4-yl)-N1-[(3S,4S)-4-fluoropyrrolidin-3-yl]-3-(1H-tetrazol-5-yl)benzene-1,2-disulfonamide]: the Efflux ratio is 1.00.

Source of the values: patent publication US10544130B2, “Metallo-beta-lactamase inhibitors” (priority 2015, dated 2020).
